# Key:
# BbFpn E203A = BbFpn E203A (Bdellovibrio bacteriovorus, UniProt Q6MLJ0, E203A); test: Isothermal titration calorimetry, E203A BbFpn; assay type: binding, Bdellovibrio bacteriovorous
# BbFpn N196A = BbFpn N196A (Bdellovibrio bacteriovorus, UniProt Q6MLJ0, N196A); test: Isothermal titration calorimetry, N196A BbFpn; assay type: binding, Bdellovibrio bacteriovorous
# Fpn-C2-E219A = molecular target: T1, Fpn-C2-E219A (Mus musculus, UniProt Q9JHI9, DEL251-290/DEL401-449/E219A); test: Isothermal titration calorimetry, Fpn-C2-E219A mutant; assay type: binding
# T1 construct: generated from full-length mouse Fpn (UniProt: Q9JHI9); GFP (C); made in house; host or cells: Sf9 insect cells (baculovirus)
# T1 sequence (Q9JHI9 with tags, fused parts or gaps E219A/DEL251-290/DEL401-449): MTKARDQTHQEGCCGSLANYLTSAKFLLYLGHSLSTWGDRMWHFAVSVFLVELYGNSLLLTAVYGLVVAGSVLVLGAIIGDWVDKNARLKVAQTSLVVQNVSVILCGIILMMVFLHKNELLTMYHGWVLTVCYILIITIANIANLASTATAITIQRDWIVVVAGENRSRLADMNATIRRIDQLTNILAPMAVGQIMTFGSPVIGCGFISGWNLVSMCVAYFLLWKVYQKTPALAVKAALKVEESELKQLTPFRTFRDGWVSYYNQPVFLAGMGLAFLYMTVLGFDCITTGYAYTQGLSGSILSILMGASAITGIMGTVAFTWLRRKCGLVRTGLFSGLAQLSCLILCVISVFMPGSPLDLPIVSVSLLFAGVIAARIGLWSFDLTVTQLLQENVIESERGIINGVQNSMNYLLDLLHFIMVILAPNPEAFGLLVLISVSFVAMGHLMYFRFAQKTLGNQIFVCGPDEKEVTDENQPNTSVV
# Description: To obtain a purified mammalian Fpn protein conducive for biophysical studies, we generated a protein construct with an increased thermal stability (Deshpande et al., 2018). In brief, the construct (Fpn-C2) was generated from full-length mouse Fpn (UniProt: Q9JHI9 [https://www.uniprot.org/uniprot/Q9JHI9]) by deleting two-loop regions (residues 251–290 and 401–449), followed by an overlapping PCR incorporating the E219A mutation to generate Fpn-C2-E219A. […]
# For Fpn-C2 and Fpn-C2-E219A purification (Deshpande et al., 2018), Sf9 cells were thawed at room temperature with the addition of 2 μl Benzonase (250 units/μL, Sigma-Aldrich), 1 mM MgSO4, 0.2 mM PMSF, and lysed by a single pass through cooled EmulsiFlex-C3 homogenizer (Avestin). […] The SEC eluted protein was concentrated to ~10 mg/ml as determined by the BCA assay (Thermo Fisher Scientific) method and stored at −80 °C until further use. […]
# In each experiment, the protein solution was loaded into the sample cell, and the ligand solution was loaded in the syringe. […] To obtain the effective heat of binding, the heat of dilution, measured by injecting the ligand solution alone into buffer, was subtracted prior to data analysis. […]
# Sequence of BbFpn N196A (Q6MLJ0 whole entry N196A): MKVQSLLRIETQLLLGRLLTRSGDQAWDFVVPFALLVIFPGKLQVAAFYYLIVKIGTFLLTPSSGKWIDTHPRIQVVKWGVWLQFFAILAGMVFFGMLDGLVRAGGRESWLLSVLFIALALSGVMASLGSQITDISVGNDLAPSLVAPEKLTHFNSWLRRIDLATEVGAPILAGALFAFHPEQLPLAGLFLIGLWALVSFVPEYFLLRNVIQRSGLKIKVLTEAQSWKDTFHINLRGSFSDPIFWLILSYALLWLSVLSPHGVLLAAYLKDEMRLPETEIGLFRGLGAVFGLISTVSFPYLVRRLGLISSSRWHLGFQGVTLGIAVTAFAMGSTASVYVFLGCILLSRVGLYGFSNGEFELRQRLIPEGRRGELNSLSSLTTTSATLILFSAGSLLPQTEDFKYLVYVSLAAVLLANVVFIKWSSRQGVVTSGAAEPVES
# Sequence of BbFpn E203A (Q6MLJ0 whole entry E203A): as the sequence (Q6MLJ0 whole entry N196A) above, with A196N, E203A counted along it
smiles,measurement,setting,value
"[Ca+2] [Ca^2+, calcium]",Binding to E203A BbFpn by ITC (in words),BbFpn E203A,complete loss
same,Binding to N196A BbFpn by ITC (in words),BbFpn N196A,complete loss
same,Binding to Fpn-C2-E219A by ITC (in words),Fpn-C2-E219A,no binding

# Reference: article PMC6079014, “Calcium is an essential cofactor for metal efflux by the ferroportin transporter family” (Nature Communications, 2018)
